Laboratory results published in PubChem BioAssay (NCI).
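The compound was tested at five concentrations on cells cultured in 96-well plates, with a 48-hour exposure period. TGI is the concentration that stops growth completely.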

Legend:
Experiment in all cases: NCI anticancer screen, dose series, 48 h
[1] = tested on: EKVX NSCLC
[2] = tested on: ACHN renal
[3] = tested on: K-562 leukemia
[4] = tested on: OVCAR-4 ovarian
[5] = tested on: RXF 393 renal
[6] = tested on: SW-620 colon
[7] = tested on: NCI/ADR-RES ovarian
[8] = tested on: MDA-MB-435
[9] = tested on: UACC-62 melanoma
[10] = tested on: RPMI-8226 leukemia

Measured: TGI

CSc1nc(NC2CCCC2)c2cc[nH]c2n1
> 100 µM: [1] | [2] | [3] | [4] | [5] | [6] | [7] | [8] | [9] | [10]

COc1ccc(N2C=Nn3c(nc4sc(C)c(C)c4c3=O)C2)cc1
> 100 µM: [1] | [2] | [3] | [4] | [5] | [6] | [7] | [8] | [9] | [10]

CC(=O)NCCCCNCCCNC(C)=O
> 100 µM: [1] | [2] | [3] | [4] | [5] | [6] | [7] | [8] | [9] | [10]
